Several values for one entry are separate records, joined by “and”; a condition that tells them apart may be missing. Equal values may be shown once.
Legend:
Test in all cases: Example II: in-water applied weed control, transplanted paddy rice, greenhouse
ECHCG = format: in vivo, Echinochloa crus-galli (L.) Beauv. (barnyardgrass)
Method: (§1) Weed seeds or nutlets of the desired test plant species were planted in puddled soil (mud) prepared by mixing a shredded, non-sterilized mineral soil (50.5 percent silt, 25.5 percent clay, and 24 percent sand, with a pH of about 7.6 and an organic matter content of about 2.9 percent) and water at a 1:1 volumetric ratio. The prepared mud was dispensed in 365 mL aliquots into 16-ounce (oz.) non-perforated plastic pots with a surface area of 86.59 square centimeters (cm^2) leaving a headspace of 3 centimeters (cm) in each pot. Mud was allowed to dry overnight prior to planting or transplanting. Rice seeds were planted in Sun Gro MetroMix® 306 planting mixture, which typically has a pH of 6.0 to 6.8 and an organic matter content of about 30 percent, in plastic plug trays. Seedlings at the second or third leaf stage of growth were transplanted into 840 mL of mud contained in 32-oz. non-perforated plastic pots with a surface area of 86.59 cm^2 4 days prior to herbicide application. The paddy was created by filling the headspace of the pots with 2.5 to 3 cm of water. When required to ensure good germination and healthy plants, a fungicide treatment and/or other chemical or physical treatment was applied. The plants were grown for 4-22 days in a greenhouse with an approximate 14 hr photoperiod which was maintained at about 29′C during the day and 26° C. during the night. Nutrients were added as Osmocote® (19:6:12, N:P:K+ minor nutrients) at 2 g per 16-oz. pot and 4 g per 32-oz. pot. Water was added on a regular basis to maintain the paddy flood, and supplemental lighting was provided with overhead metal halide 1000-Watt lamps as necessary. The plants were employed for testing when they reached the first through fourth true leaf stage.
(§2) Treatments consisted of the acid or esters of 4-amino-3-chloro-5-fluoro-6-(4-chloro-2-fluoro-3-methoxy-phenyl)pyridine-2-carboxylic acid (compound A) each formulated as an SC (suspension concentrate) and various herbicidal components alone and in combination. Forms of compound A were applied on an acid equivalent basis.
(§3) The herbicidal components were applied on an active ingredient basis and included very long chain fatty acid (VLCFA) synthesis-inhibiting and fatty acid/lipid synthesis-inhibiting herbicides acetochlor (technical grade material), acetochlor+dichlormid formulateded as Topnotch®, pretilachlor (technical grade material), butachlor formulated as Butachlor EC, fentrazamide formulated as Fentrazamide EC, thiobencarb formulated as Bolero® 8EC, cafenstrole formulated as Himeadow® WP or Lapost® Flowable, benfuresate formulated as Full Shot®, anilofos (technical grade material), mefenacet (technical grade material), molinate (technical grade material), and thenylchlor (technical grade material).
(§4) Treatment requirements for each compound or herbicidal component were calculated based upon the rates being tested, the concentration of active ingredient or acid equivalent in the formulation, an application volume of 2 mL per component per pot, and an application area of 86.59 cm^2 per pot.
(§5) For formulated compounds, a measured amount was placed in an individual 100 or 200 mL glass vial and was dissolved in a volume of 1.25% (v/v) Agri-Dex® crop oil concentrate to obtain application solutions.
(§6) For technical grade compounds, a weighed amount was placed in an individual 100 to 200 mL glass vial and was dissolved in a volume of acetone to obtain concentrated stock solutions. […] The concentrated stock solutions obtained were diluted with an equivalent volume of an aqueous mixture containing 2.5% (v/v) crop oil concentrate so that the final application solutions contained 1.25% (v/v) crop oil concentrate.
(§7) Applications were made by injecting with a pipetter appropriate amounts of the application solutions, individually and sequentially, into the aqueous layer of the paddy. Control plants were treated in the same manner with the solvent blank. […]

LEFCH = format: in vivo, Leptochloa chinensis (L.) Nees (Chinese sprangletop)
Method: as §1, §2, §3, §4, §5, §6, §7

CYPRO = format: in vivo, Cyperus rotundus L. (purple nutsedge)
In short: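 Transplanted rice and weeds at the first to fourth true leaf stage in flooded mud pots (pH ~7.6 soil), greenhouse ~29/26 °C, 14 h photoperiod. Compound A (acid equivalent) and VLCFA/lipid-synthesis herbicides (active ingredient) injected into the paddy water in 1.25% crop oil concentrate. Injury scored visually at ~3 weeks versus untreated, 0–100%.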

FIMMI = format: in vivo, Fimbristylis miliacea (L.) Vahl (globe fringerush); settings: for Visual Weed Control FIMMI Obs: 19 DAA
Method: as §1, §2, §3, §4, §5, §6, §7

[1] = 52.5 gai/ha (Himeadow WP), 21 DAA
[2] = 105 gai/ha (Himeadow WP), 21 DAA

## CCS(=O)(=O)Oc1ccc2c(c1)C(C)(C)CO2 [Benfuresate, 2,3-dihydro-3,3-dimethyl-5-benzofuranyl ethanesulfonate]
ECHCG; 75 gai/ha (Full Slot), 22 DAA
  Visual Weed Control ECHCG Obs: 0%
ECHCG; 150 gai/ha (Full Slot), 22 DAA
  Visual Weed Control ECHCG Obs: 0%
LEFCH; 75 gai/ha (Full Slot), 22 DAA
  Visual Weed Control LEFCH Obs: 0%
LEFCH; 150 gai/ha (Full Slot), 22 DAA
  Visual Weed Control LEFCH Obs: 0%

## CCCOCCN(C(=O)CCl)c1c(CC)cccc1CC [Pretilachlor, 2-chloro-N-(2,6-diethylphenyl)-N-(2-propoxyethyl)acetamide]
CYPRO; 75 gai/ha
  Visual Weed Control (%) - 20 DAA CYPRO Obs: 0%
CYPRO; 150 gai/ha
  Visual Weed Control (%) - 20 DAA CYPRO Obs: 0%
FIMMI; 75 gai/ha
  Visual Weed Control (%) - 20 DAA FIMMI Obs: 40%
FIMMI; 150 gai/ha
  Visual Weed Control (%) - 20 DAA FIMMI Obs: 45%

## COc1c(Cl)ccc(-c2nc(C(=O)O)c(Cl)c(N)c2F)c1F [Compound A Acid, 4-amino-3-chloro-6-(4-chloro-2-fluoro-3-methoxyphenyl)-5-fluoropyridine-2-carboxylic acid]
CYPRO; 8.75 gae/ha
  Visual Weed Control (%) - 20 DAA CYPRO Obs: 0%
  Visual Weed Control (%) - 21 DAA CYPRO Obs: 0%
CYPRO; 8.75 gae/ha, 21 DAA
  Visual Weed Control CYPRO Obs: 0%
CYPRO; 17.5 gae/ha, 21 DAA
  Visual Weed Control CYPRO Obs: 20%
CYPRO; 35 gae/ha
  Visual Weed Control (%) - 20 DAA CYPRO Obs: 80% and 90%
FIMMI; 8.75 gae/ha
  Visual Weed Control (%) - 20 DAA FIMMI Obs: 50%
ECHCG; 8.75 gae/ha
  Visual Weed Control (%) - 21 DAA ECHCG Obs: 0%
  Visual Weed Control (%) - 22 DAA ECHCG Obs: 0%
ECHCG; 8.75 gae/ha, 21 DAA
  Visual Weed Control ECHCG Obs: 0%
ECHCG; 17.5 gae/ha
  Visual Weed Control (%) - 21 DAA ECHCG Obs: 0%
  Visual Weed Control (%) - 22 DAA ECHCG Obs: 15%
ECHCG; 17.5 gae/ha, 21 DAA
  Visual Weed Control ECHCG Obs: 0%
ECHCG; 35 gae/ha
  Visual Weed Control (%) - 21 DAA ECHCG Obs: 20%
  Visual Weed Control (%) - 22 DAA ECHCG Obs: 15%
ECHCG; 35 gae/ha, 21 DAA
  Visual Weed Control ECHCG Obs: 20%
ECHCG; 42.4 gae/ha, 22 DAA
  Visual Weed Control ECHCG Obs: 30%
LEFCH; 10.6 gae/ha, 22 DAA
  Visual Weed Control LEFCH Obs: 20%
LEFCH; 21.2 gae/ha, 22 DAA
  Visual Weed Control LEFCH Obs: 40%
LEFCH; 35 gae/ha, 21 DAA
  Visual Weed Control LEFCH Obs: 5%
LEFCH; 42.4 gae/ha, 22 DAA
  Visual Weed Control LEFCH Obs: 60%
LEFCH; 70 gae/ha, 21 DAA
  Visual Weed Control LEFCH Obs: 23%

## COc1c(Cl)ccc(-c2nc(C(=O)OCc3ccccc3)c(Cl)c(N)c2F)c1F [Compound A Benzyl Ester, benzyl ester of 4-amino-3-chloro-5-fluoro-6-(4-chloro-2-fluoro-3-methoxy-phenyl)pyridine-2-carboxylic acid]
CYPRO; 4.38 gae/ha
  Visual Weed Control (%) - 21 DAA CYPRO Obs: 0%
CYPRO; 4.38 gae/ha, 20 DAA
  Visual Weed Control CYPRO Obs: 0%
CYPRO; 4.38 gae/ha, 21 DAA
  Visual Weed Control CYPRO Obs: 0%
CYPRO; 8 gae/ha, 19 DAA
  Visual Weed Control CYPRO Obs: 50%
CYPRO; 8.75 gae/ha
  Visual Weed Control (%) - 20 DAA CYPRO Obs: 20% and 30%
  Visual Weed Control (%) - 21 DAA CYPRO Obs: 30%
CYPRO; 8.75 gae/ha, 20 DAA
  Visual Weed Control CYPRO Obs: 20%
CYPRO; 8.75 gae/ha, 21 DAA
  Visual Weed Control CYPRO Obs: 30%
CYPRO; 17.5 gae/ha
  Visual Weed Control (%) - 20 DAA CYPRO Obs: 95%
CYPRO; 17.5 gae/ha, 20 DAA
  Visual Weed Control CYPRO Obs: 95%
FIMMI; 4.38 gae/ha
  Visual Weed Control (%) - 20 DAA FIMMI Obs: 30%
FIMMI; 8 gae/ha
  Visual Weed Control FIMMI Obs: 0%
FIMMI; 8.75 gae/ha
  Visual Weed Control (%) - 20 DAA FIMMI Obs: 60%
FIMMI; 16 gae/ha
  Visual Weed Control FIMMI Obs: 0%
FIMMI; 32 gae/ha
  Visual Weed Control FIMMI Obs: 85%
ECHCG; 4.38 gae/ha
  Visual Weed Control (%) - 21 DAA ECHCG Obs: 15%
  Visual Weed Control (%) - 22 DAA ECHCG Obs: 10%
ECHCG; 4.38 gae/ha, 21 DAA
  Visual Weed Control ECHCG Obs: 15%
ECHCG; 8 gae/ha, 19 DAA
  Visual Weed Control ECHCG Obs: 30%
ECHCG; 8.75 gae/ha
  Visual Weed Control (%) - 21 DAA ECHCG Obs: 20%
  Visual Weed Control (%) - 22 DAA ECHCG Obs: 25%
ECHCG; 8.75 gae/ha, 21 DAA
  Visual Weed Control ECHCG Obs: 20%
ECHCG; 16 gae/ha, 19 DAA
  Visual Weed Control ECHCG Obs: 20%
ECHCG; 17.5 gae/ha
  Visual Weed Control (%) - 21 DAA ECHCG Obs: 75%
  Visual Weed Control (%) - 22 DAA ECHCG Obs: 60%
ECHCG; 17.5 gae/ha, 21 DAA
  Visual Weed Control ECHCG Obs: 75%
ECHCG; 32 gae/ha, 19 DAA
  Visual Weed Control ECHCG Obs: 40%
LEFCH; 4.38 gae/ha, 22 DAA
  Visual Weed Control LEFCH Obs: 20%
LEFCH; 8 gae/ha, 19 DAA
  Visual Weed Control LEFCH Obs: 0%
LEFCH; 16 gae/ha, 19 DAA
  Visual Weed Control LEFCH Obs: 0%
LEFCH; 32 gae/ha, 19 DAA
  Visual Weed Control LEFCH Obs: 15%
LEFCH; 35 gae/ha, 21 DAA
  Visual Weed Control LEFCH Obs: 50%
LEFCH; 70 gae/ha, 21 DAA
  Visual Weed Control LEFCH Obs: 50%

## CCN(CC)C(=O)n1cnc(S(=O)(=O)c2c(C)cc(C)cc2C)n1 [Cafenstrole, N,N-diethyl-3-[(2,4,6-trimethylphenyl)sulfonyl]-1H-1,2,4-triazole-1-carboxamide]
CYPRO; [1]
  Visual Weed Control CYPRO Obs: 0%
CYPRO; 52.5 gai/ha (Lapost Flowable), 21 DAA
  Visual Weed Control CYPRO Obs: 0%
CYPRO; [2]
  Visual Weed Control CYPRO Obs: 0%
CYPRO; 105 gai/ha (Lapost Flowable), 21 DAA
  Visual Weed Control CYPRO Obs: 0%
ECHCG; [1]
  Visual Weed Control ECHCG Obs: 20%
ECHCG; [2]
  Visual Weed Control ECHCG Obs: 25%
LEFCH; 210 gai/ha (Lapost Flowable), 21 DAA
  Visual Weed Control LEFCH Obs: 38%

Source: patent publication US20130310256A1, “HERBICIDAL COMPOSITIONS COMPRISING 4-AMINO-3-CHLORO-5-FLUORO-6-(4-CHLORO-2-FLUORO-3-METHOXYPHENYL) PYRIDINE-2-CARBOXYLIC ACID OR A DERIVATIVE THEREOF AND VLCFA AND LIPID SYNTHESIS INHIBITING HERBICIDES” (DOW AGROSCIENCES LLC, priority 2008, published 2013)
